In patent US10370404B2, “Protoescigenin derivative, process of its preparation, use of said compound and pharmaceutical composition comprising that compound” (Warszawski Uniwersytet Medyczny, priority 2015, dated 2019):

Experiments:
[1] = system: Human Umbilical Vein Endothelial Cells (HUVEC); experiment: HUVEC in vitro vascular permeability assay; type: cell-based; settings: 2 μM for 24 h; rhTNF-α for the last 6 h
Protocol: (§1) Human Umbilical Vein Endothelial Cells (HUVEC) were cultured in the EBM-2 (Lonza) supplemented with endothelial growth supplement mix (EGM-2 SingleQuot Kit Supplements and Growth Factors, Lonza) and 2% foetal bovine serum under standard cell culture condition (37° C., 5% CO2). Cells were harvested using Accutase (PAA Laboratories). All described experiments were performed with cells of passage four from at least three donors. The cells were treated with the compound of the invention at 2 μM for 24 h with or without an additional of 6 h stimulation of recombinant human TNF-α (rhTNF-α, 10 ng/ml, R&D Systems).
The In Vitro Vascular Permeability Assay Kit (Chemicon) was used to determine HUVEC monolayer permeability. All the steps of the procedure were performed according to the manufacturer's instructions.
The In Vitro Vascular Permeability Assay Kit (Chemicon) was used to determine HUVEC monolayer permeability following 24 h treatment of the compound of the invention at 2 μM concentrations. The effect of rhTNF-α (R&D Systems), which was added to cell culture for the last 6 h of the incubation period, was also determined. The subsequent steps of the procedure were performed according to the manufacturer's instructions.

[2] = system: male Wistar rats with surgically created side-to-side arterio-venous fistula between common femoral vessels; experiment: Rat arteriovenous fistula model of Parkes Weber syndrome: thigh circumference, muscle weight, femoral bone length; type: in vivo; settings: sodium salt 10 mg/ml oral gavage, 4 weeks
Protocol: (§2) The below experiments were performed on male Wistar rats, at the age of 8-10 weeks, divided into two groups: the experimental group with surgically created side-to-side arterio-venous fistula between common femoral vessels (n=23) and a control group of un-operated animals (n=10). The experiment was approved by the local Bioethics Commission for experiments on animals, Warsaw 02-091, Żwirki i Wigury 61 (resolutions nr 11/2009 dated Jun. 23, 2009 and 46/12 dated Sep. 25, 2012).
Rats in experimental group were divided into two sub-groups, receiving no treatment (n=14) and receiving compound of the invention (n=9). Each animal was subjected to following surgical operations.
After induction of general anesthesia longitudinal skin incision just below inguinal ligament was performed. […] After application of micro-vascular clamps on common femoral vessels longitudinal 2 mm±0.1 mm long incision on antero-lateral side of the vein and antero-medial side of the artery were performed. Afterwards side-to-side anastomosis between common femoral vessels was performed to create arteriovenous fistula (non-absorbable monofilament suture 10/0). Subsequently micro-vascular clamps were removed and arteriovenous fistula patency was checked and haemostasis was achieved. […] The resultant vein lumen corresponded to approximately 80-90% of the initial vein lumen. Next, subcutaneous tissue and skin were sutured with absorbable suture.
The above procedure results in obtaining an animal model of Parkes Weber syndrome, described in the European patent application EP14001527. Hereinafter, these limbs are referred to as AVF limbs.
The operation of the right hind limb (control limb) included skin incision, common femoral vessels dissection, and subcutaneous and skin suture (absorbable suture). Hereinafter, these limbs are referred to as sham-operated limbs.
Animals were fed for 1 week, than surgical procedures were conducted. After the operation, animals were fed and treated with the compound of the invention.
(§3) The rats in sub-groups receiving compound of the invention were treated for 4 weeks with the compound of the invention (E-38) in form of sodium salt (10 mg/ml, 13.7 mM) administered by oral gavage.
(§4) After 4 weeks, rats were sacrificed and measurements were conducted. Non-operated rats were fed during the whole experiment. Blood samples for serum analysis were collected before the animals were sacrificed. […]
(§5) After euthanasia, measurements of thigh circumference limbs of animals of the experimental and control groups were performed. […] Femoral bones were excised and their length was measured with an electronic slide clipper.
(§6) The results were expressed as arithmetic means and standard errors of the mean (SEM). […]

[3] = Biochemical analysis of the serum samples; type: in vivo, rat; settings: control and experimental rats; sodium salt 10 mg/ml oral gavage, 4 weeks
Protocol: as §3
After 4 weeks, rats were sacrificed and measurements were conducted. Non-operated rats were fed during the whole experiment. Blood samples for serum analysis were collected before the animals were sacrificed. Biochemical analysis of the blood samples was conducted using biochemical analyzer Cobas 6000 (Roche, Hitachi).
In order to verify whether the administration of the compound of the invention results in any toxic effects influence in tested rats, the inventors conducted a set of basic biochemical tests of the serum isolated from the blood samples obtained from the control and experimental rats.
The conducted blood serum test included following parameters: glucose (GLUC), creatinin (CREA), urea (UREA), total protein (TP), uric acid (UA), amylase (AMYL), albumin (ALB), cholesterol (CHOL), triglicerides (TRIG), lipase (LIP), aspartate aminotransferase (AST), alanine aminotransferase (ALT), creatine kinase (CK).

[4] = system: male Wistar rats (un-operated control group); experiment: Un-operated control rats: thigh circumference, muscle weight, femoral bone length; type: in vivo, rat; settings: sodium salt 10 mg/ml oral gavage, 4 weeks
Protocol: as §2
Rats in the control group were also divided into two sub-groups, receiving no treatment (n=6) and receiving the compound of the invention (n=4). These animals were not subjected to any surgical procedure.
as §3, §4, §5, §6

[5] = system: Human Umbilical Vein Endothelial Cells (HUVEC); experiment: HUVEC cell migration assay; type: cell-based; settings: 2 μM; rhTNF-α 10 ng/ml
Protocol: as §1
The rate of cell migration was measured with the Angiogenesis System: Endothelial Cell Migration (BD Biosciences) strictly according to the manufacturer's instructions.
The rate of cell migration was measured with Angiogenesis System: Endothelial Cell Migration (BD Biosciences). Briefly, 90% confluent HUVEC were incubated with the compound of the invention at 2 μM concentration in a complete culture medium for 24 h, then starved for 4 h in a medium containing 0.1% serum. Following seeing on migration inserts ([…] in 250 μl of media containing the compound of the invention) HUVEC were stimulated with rhTNF-α (10 ng/ml, R&D Systems). […]

[6] = left hind (AVF) limbs vs experimental group with no treatment

With `CC1(C)C[C@H]2C3=CCC4[C@@]5(C)CC[C@H](O)[C@](C)(CO)C5CC[C@@]4(C)[C@]3(C)C[C@@H](O)[C@@]2(COCc2cn(-c3ccc(C(=O)O)cc3)nn2)[C@@H](O)[C@@H]1O` (some centres unmarked) [compound of the invention] the “TNF-α-induced endothelial cells permeability” value [1] was “significantly decreased”, the “effect on measured parameters (thigh circumference, EDL and SOL muscle weight, femoral bone length)” value ([2]; AVF rats) was “reduction of the measured parameters to a very significant extent” and the “reduction of EDL muscle weight” value [2, 6] was “approx. 59.2%”. The “reduction of SOL muscle weight” value [2, 6] was “approx. 63.6%”, the “reduction of thigh circumference” value [2, 6] was “approx. 12.5%” and the “influence on blood serum parameters (GLUC, CREA, UREA, TP, UA, AMYL, ALB, CHOL, TRIG, LIP, AST, ALT, CK)” value [3] was “no significant influence”. The “influence on measured parameters (thigh circumference, EDL and SOL muscle weight, femoral bone length)” value [4] was “insignificant influence” and the TNF-α-induced cell migration [5] was “reduced”.
